Measured values published in ChEMBL document CHEMBL3621073, “Bile acid amphiphiles with tunable head groups as highly selective antitubercular agents” (Medchemcomm, 2014).
Values after ≈ are worked out from the molar mass of the structure shown.

Experiments:
[1] = tested on: Mycolicibacterium smegmatis; experiment: Antimycobacterial activity against Mycobacterium smegmatis str. MC2 155 after 2 days by inverted microscopic analysis; assay type: functional; settings: str. MC2 155, 48 h
[2] = tested on: Mycobacterium tuberculosis; experiment: Antimycobacterial activity against Mycobacterium tuberculosis H37Rv after 14 days by inverted microscopic analysis; assay type: functional; settings: 336 h
[3] = Therapeutic index, ratio of MHC50 for chicken RBC to MIC99 for Mycobacterium tuberculosis H37Rv; settings: chicken red blood cells, read-out: TI
[4] = Therapeutic index, ratio of MHC50 for sheep RBC to MIC99 for Mycobacterium tuberculosis H37Rv; settings: sheep red blood cells, read-out: TI
[5] = tested on: Escherichia coli; experiment: Antibacterial activity against Escherichia coli MTCC 443 after 12 hrs by microplate reader assay; assay type: functional; settings: MTCC 443, 12 h
[6] = tested on: Staphylococcus aureus; experiment: Antibacterial activity against Staphylococcus aureus MTCC 737 after 12 hrs by microplate reader assay; assay type: functional; settings: MTCC 737, 12 h
[7] = tested on: A549; experiment: Cytotoxicity against human A549 cells after 48 hrs by MTT assay; assay type: cell-based; settings: A549, 48 h
[8] = tested on: THP-1; experiment: Cytotoxicity against human THP1 cells after 48 hrs by MTT assay; assay type: cell-based; settings: THP-1, 48 h
[9] = tested on: A549; experiment: Cytotoxicity against human A549 cells assessed as effect on cell cycle phase at 100 uM by propidium iodide staining-based flow cytometry; settings: a549, 100 µM

SMILES | MIC99 [1] | MIC99 [2] | selectivity ratio [3] | selectivity ratio [4] | MIC99 [5] | MIC99 [6] | IC50 [7] | IC50 [8] | Activity [9]
COC(=O)CC[C@@H](C)[C@H]1CC[C@H]2[C@@H]3CC[C@@H]4C[C@H](OC(=O)C[N+](C)(C)C)CC[C@]4(C)[C@H]3C[C@H](OC(=O)C[N+](C)(C)C)[C@]12C | 12.5 µM | > 50 µM | < 20 | < 20 | 256 µM | 256 µM | 157 µM | 105 µM | 
C[C@H](CCC(=O)O)[C@H]1CC[C@H]2[C@@H]3[C@H](O)C[C@@H]4C[C@H](O)CC[C@]4(C)[C@H]3C[C@H](O)[C@]12C [CHOLIC ACID] |  |  |  |  |  |  |  |  | Non-toxic
COC(=O)CC[C@@H](C)[C@H]1CC[C@H]2[C@@H]3CC[C@@H]4C[C@H](OC(=O)C[N+]5(C)CCCCC5)CC[C@]4(C)[C@H]3C[C@H](OC(=O)C[N+]3(C)CCCCC3)[C@]12C | 0.78 µM | 6.25 µM | > 160 | > 160 | > 512 µM | 128 µM | 50 µM | 77 µM | 
COC(=O)CC[C@@H](C)[C@H]1CC[C@H]2[C@@H]3CC[C@@H]4C[C@H](OC(=O)CN)CC[C@]4(C)[C@H]3CC[C@]12C | > 50 µM | > 50 µM | < 20 | < 20 | > 512 µM | > 512 µM | 24.6 µM | 14 µM | 
COC(=O)CC[C@@H](C)[C@H]1CC[C@H]2[C@@H]3CC[C@@H]4C[C@H](OC(=O)C[n+]5ccccc5)CC[C@]4(C)[C@H]3CC[C@]12C | 25 µM | > 50 µM | < 20 | < 20 | > 512 µM | > 512 µM | 68 µM | 89 µM | 
NNC(=O)c1ccncc1 [ISONIAZID] | > 50 µM | 0.78 µM (≈ 0.107 µg/mL) |  |  |  |  |  |  | 
COC(=O)CC[C@@H](C)[C@H]1CC[C@H]2[C@@H]3[C@H](OC(=O)C[N+]4(C)CCCCC4)C[C@@H]4C[C@H](OC(=O)C[N+]5(C)CCCCC5)CC[C@]4(C)[C@H]3C[C@H](OC(=O)C[N+]3(C)CCCCC3)[C@]12C.[Cl-].[Cl-].[Cl-] | 6.25 µM | 25 µM | > 40 | > 40 | > 512 µM | 512 µM | > 200 µM | > 200 µM | Non-toxic
COC(=O)CC[C@@H](C)[C@H]1CC[C@H]2[C@@H]3[C@H](OC(=O)C[n+]4ccccc4)C[C@@H]4C[C@H](OC(=O)C[n+]5ccccc5)CC[C@]4(C)[C@H]3C[C@H](OC(=O)C[n+]3ccccc3)[C@]12C.[Cl-].[Cl-].[Cl-] | 3.12 µM | 37.5 µM | > 26 | > 26 | > 512 µM | > 512 µM | > 200 µM | > 200 µM | Non-toxic
COC(=O)CC[C@@H](C)[C@H]1CC[C@H]2[C@@H]3[C@H](OC(=O)C[n+]4ccccc4)C[C@@H]4C[C@H](OC(=O)C[n+]5ccccc5)CC[C@]4(C)[C@H]3CC[C@]12C | 3.12 µM | 25 µM | > 40 | > 40 | 128 µM | 256 µM | 168 µM | > 200 µM | 
COC(=O)CC[C@@H](C)[C@H]1CC[C@H]2[C@@H]3[C@H](OC(=O)CN)C[C@@H]4C[C@H](OC(=O)CN)CC[C@]4(C)[C@H]3CC[C@]12C | > 50 µM | > 50 µM | < 20 | < 20 | 64 µM (≈ 33.3 µg/mL) | 128 µM (≈ 66.7 µg/mL) | 14.8 µM | 13.7 µM | 
COC(=O)CC[C@@H](C)[C@H]1CC[C@H]2[C@@H]3[C@H](OC(=O)C[N+]4(C)CCCCC4)C[C@@H]4C[C@H](OC(=O)C[N+]5(C)CCCCC5)CC[C@]4(C)[C@H]3CC[C@]12C | 1.56 µM | 12.5 µM | > 80 | > 80 | 128 µM | 256 µM | 79 µM | 164 µM | 
COC(=O)CC[C@@H](C)[C@H]1CC[C@H]2[C@@H]3[C@H](OC(=O)C[n+]4ccc(N(C)C)cc4)C[C@@H]4C[C@H](OC(=O)C[n+]5ccc(N(C)C)cc5)CC[C@]4(C)[C@H]3CC[C@]12C | 0.78 µM | 3.12 µM | > 320 | > 320 | 128 µM | 128 µM | 154 µM | 137 µM | 
COC(=O)CC[C@@H](C)[C@H]1CC[C@H]2[C@@H]3CC[C@@H]4C[C@H](OC(=O)C[N+]5(C)CCCCC5)CC[C@]4(C)[C@H]3CC[C@]12C | 6.25 µM | 50 µM | > 20 | > 20 | > 512 µM | > 512 µM | 42 µM | 77 µM | 
COC(=O)CC[C@@H](C)[C@H]1CC[C@H]2[C@@H]3CC[C@@H]4C[C@H](OC(=O)C[n+]5ccc(N(C)C)cc5)CC[C@]4(C)[C@H]3CC[C@]12C | 12.5 µM | 50 µM | > 20 | > 20 | > 512 µM | > 512 µM | 112 µM | 86 µM | 
COC(=O)CC[C@@H](C)[C@H]1CC[C@H]2[C@@H]3[C@H](OC(=O)C[N+](C)(C)C)C[C@@H]4C[C@H](OC(=O)C[N+](C)(C)C)CC[C@]4(C)[C@H]3C[C@H](OC(=O)C[N+](C)(C)C)[C@]12C.[Cl-].[Cl-].[Cl-] | 12.5 µM | 50 µM | > 20 | > 20 | > 512 µM | > 512 µM | > 200 µM | 80 µM | Non-toxic
COC(=O)CC[C@@H](C)[C@H]1CC[C@H]2[C@@H]3CC[C@@H]4C[C@H](OC(=O)C[n+]5ccc(N(C)C)cc5)CC[C@]4(C)[C@H]3C[C@H](OC(=O)C[n+]3ccc(N(C)C)cc3)[C@]12C | 0.78 µM | 4.68 µM | > 213 | > 213 | 64 µM | 64 µM | 50 µM | 63 µM | 
COC(=O)CC[C@@H](C)[C@H]1CC[C@H]2[C@@H]3CC[C@@H]4C[C@H](OC(=O)C[N+](C)(C)C)CC[C@]4(C)[C@H]3CC[C@]12C | 6.25 µM | 50 µM | > 20 | > 20 | > 512 µM | > 512 µM | 69 µM | 62 µM | 
COC(=O)CC[C@@H](C)[C@H]1CC[C@H]2[C@@H]3CC[C@@H]4C[C@H](OC(=O)C[n+]5ccccc5)CC[C@]4(C)[C@H]3C[C@H](OC(=O)C[n+]3ccccc3)[C@]12C | 1.56 µM | 12.5 µM | > 80 | > 80 | 128 µM | > 512 µM | 78 µM | 124 µM | 
C[C@H]1COc2c(N3CCN(C)CC3)c(F)cc3c(=O)c(C(=O)O)cn1c23 [LEVOFLOXACIN] | 0.58 µM (≈ 0.21 µg/mL) | 0.78 µM (≈ 0.282 µg/mL) |  |  |  |  |  |  | 
COC(=O)CC[C@@H](C)[C@H]1CC[C@H]2[C@@H]3CC[C@@H]4C[C@H](OC(=O)CN)CC[C@]4(C)[C@H]3C[C@H](OC(=O)CN)[C@]12C | > 50 µM | > 50 µM | < 20 | < 20 | 16 µM (≈ 8.33 µg/mL) | 64 µM (≈ 33.3 µg/mL) | 14.7 µM | 14 µM | 
COC(=O)CC[C@@H](C)[C@H]1CC[C@H]2[C@@H]3[C@H](OC(=O)C[N+](C)(C)C)C[C@@H]4C[C@H](OC(=O)C[N+](C)(C)C)CC[C@]4(C)[C@H]3CC[C@]12C | 3.12 µM | 12.5 µM | > 80 | > 80 | 256 µM | 512 µM | 144 µM | 142 µM | 
